# Source: patent publication US20040106148A1, “Polypeptides” (priority 2000, published 2004)
# Columns and labels:
# GST-DAPP1 = conditions: control; cited from earlier work
# [1] = target: human TAPP1, full length, mutant R212L (Arg212 to Leu), GST fusion (Homo sapiens, UniProt Q9HB21, R211L); experiment: Protein-lipid overlay; format: binding; conditions: FIG. 4B
# Method: (§1) FIG. 4. Comparison of the phosphoinositide binding properties of the N-terminal and C-terminal PH domains of TAPP1 and TAPP2. The ability of wild type and mutant forms of full length (FL) and isolated N-terminal (NT) and C-terminal (CT) PH domains of TAPP1 and TAPP2 GST-fusion proteins to interact with phosphoinositides were analysed using a protein-lipid overlay. Serial dilutions of the indicated phosphoinositides (100 pmol, 50 pmol, 25 pmol, 12.5 pmol, 6.3 pmol, 3.1 pmol and 1.6 pmol) were spotted onto a nitrocellulose membrane which was then incubated with the indicated purified GST fusion proteins. The membranes were washed and the GST-fusion proteins bound to the membrane by virtue of their interactions with lipid were detected using a GST antibody. A representative experiment of three is shown. The isolated N-terminal PH domain of human TAPP1 comprises residues 1 to 147, the isolated C-terminal PH domain of human TAPP1 comprises residues 95 to 404, the isolated N-terminal PH domain of mouse TAPP2 comprises residues 1 to 131 and the isolated C-terminal PH of mouse TAPP2 comprises residues 174 to 425.
# (§2) Protein-Lipid overlay. To assess the phosphoinositide binding properties of each PH domain, a protein-lipid overlay assay was performed using the GST fusion proteins as described previously. Briefly, 1 μl of lipid solution containing 1-100 pmol of phospholipids dissolved in a mixture of choroform:methanol:water (1:2:0.8) was spotted onto Hybond-C extra membrane and allowed to dry at room temperature for 1 h. The membrane was blocked in 3% (by mass) fatty acid-free BSA in TBST (50 mM Tris/HCl pH 7.5, 150 mM NaCl and 0.1% Tween-20 (by vol) for lh. The membrane was then incubated overnight at 4° C. with gentle agitation in the same solution containing 0.2 μg/ml of the indicated GST fusion protein. The membranes were washed 6 times over 30 min in TBST and then incubated for 1 h with 1/1000 dilution of anti-GST monoclonal antibody (Sigma). The membranes were washed as before, then incubated for 1 h with 1/5000 dilution of anti-mouse-HRP conjugate (Pierce). Finally, the membranes were washed 12 times over 1 h in TBST and the GST-fusion protein bound to the membrane by virtue of its interaction with phospholipid was detected by enhanced chemiluminescence.
# [2] = target: human TAPP1, full length, mutant R28L (Arg28 to Leu), GST fusion (Homo sapiens, UniProt Q9HB21, R28L); experiment: Protein-lipid overlay; format: binding; conditions: FIG. 4B
# Sequence of human TAPP1, full length, mutant R28L (Arg28 to Leu), GST fusion (Q9HB21 whole entry R28L, the tested form may be a part): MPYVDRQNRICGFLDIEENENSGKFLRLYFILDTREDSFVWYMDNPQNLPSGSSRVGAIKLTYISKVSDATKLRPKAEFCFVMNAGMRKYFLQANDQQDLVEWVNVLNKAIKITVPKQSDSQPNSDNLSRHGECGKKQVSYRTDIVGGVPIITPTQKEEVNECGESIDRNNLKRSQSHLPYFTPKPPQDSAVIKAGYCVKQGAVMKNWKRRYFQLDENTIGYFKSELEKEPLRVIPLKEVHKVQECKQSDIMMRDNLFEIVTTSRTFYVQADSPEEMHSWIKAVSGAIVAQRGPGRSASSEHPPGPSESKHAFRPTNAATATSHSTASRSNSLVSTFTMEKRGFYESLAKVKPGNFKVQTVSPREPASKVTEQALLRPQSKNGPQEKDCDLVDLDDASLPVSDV
# Method: as §1, §2
# [3] = target: human TAPP1, full length, wild type, GST fusion (Homo sapiens, UniProt Q9HB21); experiment: Protein-lipid overlay; format: binding; conditions: FIG. 4A and Table 2
# Sequence of human TAPP1, full length, wild type, GST fusion (Q9HB21 whole entry, the tested form may be a part): as the sequence (Q9HB21 whole entry R28L, the tested form may be a part) above, with L28R counted along it
# Method: as §1, §2
# [4] = target: human TAPP1 C-terminal PH domain, mutant R212L (Arg212 to Leu), GST fusion (Homo sapiens, UniProt Q9HB21, R211L); experiment: Protein-lipid overlay; format: binding; conditions: FIG. 4B
# Sequence of human TAPP1 C-terminal PH domain, mutant R212L (Arg212 to Leu), GST fusion (Q9HB21 95-404 R211L): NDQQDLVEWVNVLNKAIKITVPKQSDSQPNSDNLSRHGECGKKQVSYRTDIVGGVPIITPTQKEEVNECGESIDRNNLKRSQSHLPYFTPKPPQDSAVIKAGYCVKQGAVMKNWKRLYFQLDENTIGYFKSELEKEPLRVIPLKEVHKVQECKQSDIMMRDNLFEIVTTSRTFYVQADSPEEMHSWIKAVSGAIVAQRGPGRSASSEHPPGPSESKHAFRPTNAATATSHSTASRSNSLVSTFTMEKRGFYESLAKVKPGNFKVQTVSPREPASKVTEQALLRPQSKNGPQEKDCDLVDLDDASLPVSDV
# Method: as §1, §2
# [5] = target: human TAPP1 C-terminal PH domain, mutant W281L (Trp281 to Leu), GST fusion (Homo sapiens, UniProt Q9HB21, W280L); experiment: Protein-lipid overlay; format: binding; conditions: FIG. 4B
# Sequence of human TAPP1 C-terminal PH domain, mutant W281L (Trp281 to Leu), GST fusion (Q9HB21 95-404 W280L): as the sequence (Q9HB21 95-404 R211L) above, with L117R, W186L counted along it
# Method: as §1, §2
# [6] = target: mouse TAPP2, full length, wild type, GST fusion (Mus musculus, UniProt Q9ERS5); experiment: Protein-lipid overlay; format: binding; conditions: FIG. 4C and Table 2
# Sequence of mouse TAPP2, full length, wild type, GST fusion (Q9ERS5 whole entry, the tested form may be a part): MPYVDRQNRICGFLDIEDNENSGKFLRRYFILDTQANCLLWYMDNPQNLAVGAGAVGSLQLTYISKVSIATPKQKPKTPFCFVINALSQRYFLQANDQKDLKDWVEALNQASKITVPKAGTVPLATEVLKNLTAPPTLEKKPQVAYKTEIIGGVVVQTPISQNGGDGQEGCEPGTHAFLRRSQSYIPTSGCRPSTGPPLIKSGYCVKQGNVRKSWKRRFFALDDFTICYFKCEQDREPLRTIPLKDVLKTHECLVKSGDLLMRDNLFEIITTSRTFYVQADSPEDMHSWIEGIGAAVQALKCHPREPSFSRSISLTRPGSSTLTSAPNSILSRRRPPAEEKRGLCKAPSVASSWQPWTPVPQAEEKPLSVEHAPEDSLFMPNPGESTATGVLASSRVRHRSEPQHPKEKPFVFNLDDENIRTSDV
# Method: as §1, §2
# Sequence of human TAPP1, full length, mutant R212L (Arg212 to Leu), GST fusion (Q9HB21 whole entry R211L, the tested form may be a part): as the sequence (Q9HB21 whole entry R28L, the tested form may be a part) above, with L28R, R211L counted along it
compound,measurement,setting,value
"CCCCCCCCCCCCCCCC(=O)OC[C@H](COP(=O)(O)O[C@H]1[C@H](O)[C@@H](O)[C@H](OP(=O)(O)O)[C@@H](OP(=O)(O)O)[C@H]1O)OC(=O)CCCCCCCCCCCCCCC [PtdIns(3,4)P2]",phosphoinositide binding,GST-DAPP1,binds
same,effect of mutation on interaction,[1],abolished the interaction
same,effect of mutation on interaction,[2],did not affect the interaction
same,phosphoinositide binding,[3],interacted specifically
same,effect of mutation on interaction,[4],abolished the interaction
same,effect of mutation on interaction,[5],abolished the interaction
same,phosphoinositide binding,[6],interacted specifically
